Measurements as given in patent publication US4332794A, “6"-Deoxydibekacin, 4",6"-dideoxydibekacin and 1-N-aminoacyl derivatives thereof, and the production of these new compounds” (Zaidan Hojin Biseibutsu Kagaku Kenkyu Kai, priority 1979, dated 1982).
≈ marks a conversion by molar mass, not a printed value.

How the values were obtained:
Assay type in all cases: cell-based
[1] = test system: Staphylococcus aureus Smith; experiment: MIC, serial dilution on nutrient agar; conditions: 37° C., 18 hours
[2] = test system: Staphylococcus epidermidis 109; experiment: MIC, serial dilution on nutrient agar; conditions: Staphylococcus epidermidis, 109; nutrient agar, 37° C., 18 hours; read-out: MIC
Sarcina lutea PCI 1001 = experiment: MIC, serial dilution on nutrient agar; conditions: Micrococcus luteus, PCI1001, 18 h
Bacillus anthracis = experiment: microbe, parasite or virus in culture; conditions: 18 h
[3] = test system: Bacillus cereus ATCC 10702; experiment: MIC, serial dilution on nutrient agar; conditions: ATCC10702, 18 h
[4] = test system: Corynebacterium bovis 1810; experiment: MIC, serial dilution on nutrient agar; conditions: Corynebacterium bovis, 1810, 18 h
[5] = test system: Mycobacterium smegmatis ATCC 607; experiment: MIC, serial dilution on nutrient agar; conditions: Mycolicibacterium smegmatis, ATCC607; nutrient agar, 37° C., 18 hours; read-out: MIC
Escherichia coli NIHJ = experiment: MIC, serial dilution on nutrient agar; conditions: nutrient agar, 37° C., 18 hours, read-out: MIC
Escherichia coli K-12 = experiment: MIC, serial dilution on nutrient agar; conditions: K12, nutrient agar, 37° C., 18 hours, read-out: MIC
Escherichia coli K-12 R5 = experiment: microbe, parasite or virus in culture; conditions: K12R5, 18 h
[6] = test system: Escherichia coli K-12 R 388; experiment: MIC, serial dilution on nutrient agar; conditions: K12R388, 18 h
[7] = test system: Escherichia coli K-12 LA 290 R64; experiment: MIC, serial dilution on nutrient agar; conditions: K12LA290R64, 18 h
Escherichia coli W677 = experiment: MIC, serial dilution on nutrient agar; conditions: W677, nutrient agar, 37° C., 18 hours, read-out: MIC
[8] = test system: Escherichia coli JR66/W677; experiment: MIC, serial dilution on nutrient agar; conditions: JR66/W677, 18 h
Escherichia coli JR255 = experiment: microbe, parasite or virus in culture; conditions: JR255, 18 h
[9] = test system: Shigella dysenteriae JS11910; experiment: MIC, serial dilution on nutrient agar; conditions: JS11910, 18 h
[10] = test system: Escherichia coli K-12 C 600R/35; experiment: MIC, serial dilution on nutrient agar; conditions: K12C600R/35, 37° C., 18 hours
Protocol: (§1) The minimum inhibitory concentrations (mcg/ml) of 6"-deoxydibekacin (abbreviated as 6"-DDKB), 4",6"-dideoxydibekacin (abbreviated as 4",6"-DDKB), 1-N-(L-4-amino-2-hydroxybutyryl)-6"-deoxydibekacin (abbreviated as AHB-6"-DDKB) and 1-N-(L-4-amino-2-hydroxybutyryl)-4",6"-dideoxydibekacin (abbreviated as AHB-4",6"-DDKB) of this invention against various microorganisms were determined according to serial dilution method on a nutrient agar medium at 37° C., the estimation being made after 18 hours incubation. For comparison purpose, the minimum inhibitory concentrations of dibekacin (abbreviated as DKB) were also determined in the same manner as stated above.

[11] = test system: Escherichia coli K-12 J5B 11-2; experiment: MIC, serial dilution on nutrient agar; conditions: K12J5B112, 37° C., 18 hours
Protocol: as §1

[12] = test system: Escherichia coli K-12 ML 1629; experiment: MIC, serial dilution on nutrient agar; conditions: K12ML1629, 37° C., 18 hours
Protocol: as §1

[13] = test system: Escherichia coli K-12 ML 1630; experiment: MIC, serial dilution on nutrient agar; conditions: K12ML1630, 37° C., 18 hours
Protocol: as §1

[14] = test system: Klebsiella pneumoniae PCI 602; experiment: MIC, serial dilution on nutrient agar; conditions: PCI602, 37° C., 18 hours
Protocol: as §1

Proteus vulgaris OX19 = experiment: MIC, serial dilution on nutrient agar; conditions: 37° C., 18 hours
Protocol: as §1

Providencia 2991 = experiment: MIC, serial dilution on nutrient agar; conditions: 37° C., 18 hours
Protocol: as §1

[15] = test system: Pseudomonas aeruginosa 21-75; experiment: MIC, serial dilution on nutrient agar; conditions: 2175, 37° C., 18 hours
Protocol: as §1

[16] = test system: Pseudomonas aeruginosa GN315; experiment: MIC, serial dilution on nutrient agar; conditions: 37° C., 18 hours
Protocol: as §1

[17] = test system: Pseudomonas maltophilia GN907; experiment: MIC, serial dilution on nutrient agar; conditions: Stenotrophomonas maltophilia, 37° C., 18 hours
Protocol: as §1

Serratia 4 = experiment: MIC, serial dilution on nutrient agar; conditions: 37° C., 18 hours
Protocol: as §1

Serratia SOU = experiment: MIC, serial dilution on nutrient agar; conditions: 37° C., 18 hours
Protocol: as §1

Serratia marcescens = experiment: MIC, serial dilution on nutrient agar; conditions: 37° C., 18 hours
Protocol: as §1

[18] = test system: Shigella flexneri 4b JS11811; experiment: MIC, serial dilution on nutrient agar; conditions: 4BJS11811, 37° C., 18 hours
Protocol: as §1

Shigella sonnei JS11746 = experiment: MIC, serial dilution on nutrient agar; conditions: 37° C., 18 hours
Protocol: as §1

[19] = test system: Staphylococcus aureus 209P; experiment: MIC, serial dilution on nutrient agar; conditions: 37° C., 18 hours
Protocol: as §1

Providencia Pv 16 = experiment: MIC, serial dilution on nutrient agar; conditions: PV16, 18 h
[20] = test system: Pseudomonas aeruginosa A3; experiment: MIC, serial dilution on nutrient agar; conditions: A3, 18 h
[21] = test system: Pseudomonas aeruginosa No. 12; experiment: MIC, serial dilution on nutrient agar; conditions: NO.12, 18 h
[22] = test system: Pseudomonas aeruginosa H9; experiment: MIC, serial dilution on nutrient agar; conditions: H9, 18 h
[23] = test system: Pseudomonas aeruginosa PST1; experiment: MIC, serial dilution on nutrient agar; conditions: PST1, 18 h
[24] = test system: Pseudomonas aeruginosa ROS134/PU21; experiment: microbe, parasite or virus in culture; conditions: ROS134/PU21, 18 h
[25] = test system: Pseudomonas aeruginosa K-Ps102; experiment: MIC, serial dilution on nutrient agar; conditions: KPS102, 18 h

NC[C@@H]1CC[C@@H](N)[C@@H](O[C@H]2[C@H](O)[C@@H](O[C@H]3O[C@H](CO)[C@@H](O)[C@H](N)[C@H]3O)[C@H](N)C[C@@H]2N)O1 [DKB, 3',4'-dideoxykanamycin B, reference compound]
MIC [1]: < 0.2 µg/mL
MIC [2]: 1.56 µg/mL (≈ 3.45 µM)
MIC (Sarcina lutea PCI 1001): 100 µg/mL (≈ 221 µM)
MIC (Bacillus anthracis): < 0.2 µg/mL
MIC [3]: 3.13 µg/mL (≈ 6.93 µM)
MIC [4]: 50 µg/mL (≈ 111 µM)
MIC [5]: 1.56 µg/mL (≈ 3.45 µM)
MIC (Escherichia coli NIHJ): 1.56 µg/mL (≈ 3.45 µM)
MIC (Escherichia coli K-12): 1.56 µg/mL (≈ 3.45 µM)
MIC (Escherichia coli K-12 R5): > 100 µg/mL
MIC [6]: 1.56 µg/mL (≈ 3.45 µM)
MIC [7]: 25 µg/mL (≈ 55.4 µM)
MIC (Escherichia coli W677): 1.56 µg/mL (≈ 3.45 µM)
MIC [8]: 100 µg/mL (≈ 221 µM)
MIC (Escherichia coli JR255): > 100 µg/mL
MIC [9]: 3.13 µg/mL (≈ 6.93 µM)
MIC [10]: 1.56 µg/mL (≈ 3.45 µM)
MIC [11]: 3.13 µg/mL (≈ 6.93 µM)
MIC [12]: 3.13 µg/mL (≈ 6.93 µM)
MIC [13]: 3.13 µg/mL (≈ 6.93 µM)
MIC [14]: 0.78 µg/mL (≈ 1.73 µM)
MIC (Proteus vulgaris OX19): 0.78 µg/mL (≈ 1.73 µM)
MIC (Providencia 2991): > 100 µg/mL
MIC [15]: > 100 µg/mL
MIC [16]: > 100 µg/mL
MIC [17]: > 100 µg/mL
MIC (Serratia 4): 100 µg/mL (≈ 221 µM)
MIC (Serratia SOU): > 100 µg/mL
MIC (Serratia marcescens): 100 µg/mL (≈ 221 µM)
MIC [18]: 3.13 µg/mL (≈ 6.93 µM)
MIC (Shigella sonnei JS11746): 6.25 µg/mL (≈ 13.8 µM)
MIC [19]: 0.78 µg/mL (≈ 1.73 µM)
MIC (Providencia Pv 16): > 100 µg/mL
MIC [20]: 3.13 µg/mL (≈ 6.93 µM)
MIC [21]: 6.25 µg/mL (≈ 13.8 µM)
MIC [22]: 6.25 µg/mL (≈ 13.8 µM)
MIC [23]: > 100 µg/mL
MIC [24]: > 100 µg/mL
MIC [25]: 6.25 µg/mL (≈ 13.8 µM)
